{"source": "patent US20150111750A1", "about": "“Substituted N-(tetrazol-5-yl)- and N-(triazol-5-yl)hetarylcarboxamide compounds and their use as herbicides” (BASF SE, priority 2012, published 2015)", "key": {"[1]": {"tested_on": "Echinochloa crus-galli", "test": "Greenhouse post-emergence treatment of Echinochloa crus-galli", "type": "in vivo", "details": "application rate 1000 g/ha, scale 0 (no damage) to 100 (complete destruction)", "source_text": "(§1) The seeds of the test plants were sown separately for each species. For the post-emergence treatment, the test plants were first grown to a height of 3 to 15 cm, depending on the plant habit, and only then treated with the active ingredients which had been suspended or emulsified in water. For this purpose, the test plants were either sown directly and grown in the same containers, or they were first grown separately as seedlings and transplanted into the test containers a few days prior to treatment. Depending on the species, the plants were kept at 10-25° C. or 20-35° C. The test period extended over 2 to 4 weeks. During this time, the plants were tended, and their response to the individual treatments was evaluated. Evaluation was carried out using a scale from 0 to 100. 100 means no emergence of the plants, or complete destruction of at least the aerial moieties, and 0 means no damage, or normal course of growth. A good herbicidal activity is given at values of at least 70 and a very good herbicidal activity is given at values of at least 85. The plants used in the greenhouse experiments belonged to the following species: [table]"}, "[2]": {"tested_on": "Amaranthus retroflexus", "test": "Greenhouse post-emergence treatment of Amaranthus retroflexus", "type": "in vivo", "details": "application rate 1000 g/ha, scale 0 (no damage) to 100 (complete destruction)", "source_text": "as §1"}}}
{"smiles": "Cn1ncnc1NC(=O)c1cnc(Cl)cc1Cl", "note": "[I.5-1, 4,6-dichloro-N-(2-methyl-1,2,4-triazol-3-yl)pyridine-3-carboxamide]", "values": [{"measurement": "damage [%]", "setting": "[1]", "value": 30, "unit": "%"}, {"measurement": "damage [%]", "setting": "[2]", "value": 65, "unit": "%"}]}
